# Reference: ChEMBL document CHEMBL1201862, “PubChem BioAssay data set” (2004)
# Calls of active or inactive are those of the source.
# What was measured:
# HEK293 = assay: inhibitors of LMP1-driven NF-kB reporter, dose response, cell-based, HEK293, luciferase, cherry-pick (AID 588343); type: functional; details: Homo sapiens
# Cytochrome P450 3A4 = Cytochrome P450 3A4 (Homo sapiens, UniProt P08684);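 also: CYP3A4 tested as one member of a cytochrome P450 panel screen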
# Cytochrome P450 2C9 = Cytochrome P450 2C9 (Homo sapiens, UniProt P11712)
# Cytochrome P450 2C9, sequence (P11712 whole entry): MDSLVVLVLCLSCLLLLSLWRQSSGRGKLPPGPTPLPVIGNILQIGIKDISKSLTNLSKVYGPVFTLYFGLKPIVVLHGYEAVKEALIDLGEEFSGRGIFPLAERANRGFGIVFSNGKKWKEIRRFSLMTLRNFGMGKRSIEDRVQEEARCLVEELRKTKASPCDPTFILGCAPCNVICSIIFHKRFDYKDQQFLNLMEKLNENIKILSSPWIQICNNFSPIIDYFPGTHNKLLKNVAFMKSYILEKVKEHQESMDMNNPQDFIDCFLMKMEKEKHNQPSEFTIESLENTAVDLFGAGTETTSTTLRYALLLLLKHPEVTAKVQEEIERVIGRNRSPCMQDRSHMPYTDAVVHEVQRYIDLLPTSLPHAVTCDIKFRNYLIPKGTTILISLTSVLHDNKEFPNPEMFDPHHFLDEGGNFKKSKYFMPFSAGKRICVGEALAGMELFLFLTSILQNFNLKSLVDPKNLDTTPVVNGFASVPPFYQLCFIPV
# Cytochrome P450 1A2 = molecular target: T1, Cytochrome P450 1A2 (Homo sapiens, UniProt P05177);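 also: PubChem cytochrome P450 panel assay, CYP1A2 panel member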
# T1 sequence (P05177 whole entry): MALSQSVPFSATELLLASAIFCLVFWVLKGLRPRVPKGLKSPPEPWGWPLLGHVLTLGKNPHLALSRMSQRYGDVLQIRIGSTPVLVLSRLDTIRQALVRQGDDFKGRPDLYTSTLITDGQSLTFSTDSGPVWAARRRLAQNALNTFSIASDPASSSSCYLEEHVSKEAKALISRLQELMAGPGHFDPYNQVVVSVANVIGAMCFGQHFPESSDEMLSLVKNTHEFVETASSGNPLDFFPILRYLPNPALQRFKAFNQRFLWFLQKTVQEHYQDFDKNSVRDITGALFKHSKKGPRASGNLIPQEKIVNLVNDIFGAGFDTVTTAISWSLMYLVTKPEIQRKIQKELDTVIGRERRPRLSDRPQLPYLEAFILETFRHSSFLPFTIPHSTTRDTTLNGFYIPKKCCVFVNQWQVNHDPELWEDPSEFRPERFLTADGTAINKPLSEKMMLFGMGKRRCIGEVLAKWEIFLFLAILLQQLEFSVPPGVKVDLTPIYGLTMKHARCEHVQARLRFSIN
# CAAX prenyl protease 2 = molecular target: T2, CAAX prenyl protease 2 (Homo sapiens, UniProt Q9Y256); assay: human Rce1 protease inhibitors, dose response, biochemical, yeast membranes, quenched-peptide fluorescence, cherry-pick (AID 588849)
# T2 sequence (Q9Y256 whole entry): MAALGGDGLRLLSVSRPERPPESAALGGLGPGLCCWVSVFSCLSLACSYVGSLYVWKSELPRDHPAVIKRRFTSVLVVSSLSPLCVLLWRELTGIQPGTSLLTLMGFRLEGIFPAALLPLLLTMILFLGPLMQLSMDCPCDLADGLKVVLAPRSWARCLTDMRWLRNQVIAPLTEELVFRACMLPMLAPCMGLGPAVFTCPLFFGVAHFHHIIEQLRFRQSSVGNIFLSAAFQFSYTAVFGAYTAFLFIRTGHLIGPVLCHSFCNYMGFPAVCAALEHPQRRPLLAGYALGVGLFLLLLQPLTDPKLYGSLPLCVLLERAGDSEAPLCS
# Trypsin = Trypsin (Sus scrofa, UniProt P00761); assay: porcine trypsin inhibitors, dose response, selectivity assay for Rce1 protease inhibitor project, biochemical, quenched peptide fluorescence, cherry-pick (AID 488789)
# Trypsin, sequence (P00761 whole entry): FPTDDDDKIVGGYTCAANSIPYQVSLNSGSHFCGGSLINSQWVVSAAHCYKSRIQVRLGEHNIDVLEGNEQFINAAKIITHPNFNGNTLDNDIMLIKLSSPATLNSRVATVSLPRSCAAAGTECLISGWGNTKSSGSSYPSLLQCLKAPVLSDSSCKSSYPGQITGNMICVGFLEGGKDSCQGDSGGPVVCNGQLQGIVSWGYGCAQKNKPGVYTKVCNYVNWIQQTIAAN
# [1] = molecular target: T3, Heat shock factor protein 1 (Mus musculus, UniProt P38532); assay: HSF1 potentiators in luciferase reporter cells, confirmation, cell-based, NIH3T3, luminescence, dose retest (AID 435004); type: functional;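 also: stress induced by proteasome inhibitor MG132 added 30 min after compound; luciferase reporter driven by HSF1 response element in NIH3T3 cells; actives raise luminescence as potentiators of the MG132 stress response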
# T3 sequence (P38532 whole entry): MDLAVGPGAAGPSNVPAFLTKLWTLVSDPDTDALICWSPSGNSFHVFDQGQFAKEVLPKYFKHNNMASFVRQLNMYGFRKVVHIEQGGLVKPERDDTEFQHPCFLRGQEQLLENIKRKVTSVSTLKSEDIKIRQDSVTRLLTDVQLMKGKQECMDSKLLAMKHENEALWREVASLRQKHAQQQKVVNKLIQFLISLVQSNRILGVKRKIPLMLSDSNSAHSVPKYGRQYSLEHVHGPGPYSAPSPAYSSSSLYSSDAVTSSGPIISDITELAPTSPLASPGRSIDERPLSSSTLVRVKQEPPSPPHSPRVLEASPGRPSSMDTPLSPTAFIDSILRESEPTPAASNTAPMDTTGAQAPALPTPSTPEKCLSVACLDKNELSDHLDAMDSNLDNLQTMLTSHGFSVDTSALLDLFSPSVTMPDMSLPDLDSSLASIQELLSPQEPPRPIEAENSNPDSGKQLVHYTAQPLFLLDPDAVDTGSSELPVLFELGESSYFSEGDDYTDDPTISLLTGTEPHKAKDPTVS
# Beta-galactosidase = Beta-galactosidase (Escherichia coli, UniProt Q8VNN2); assay: PubChem AID 485352; type: functional
# Beta-galactosidase, sequence (Q8VNN2 whole entry): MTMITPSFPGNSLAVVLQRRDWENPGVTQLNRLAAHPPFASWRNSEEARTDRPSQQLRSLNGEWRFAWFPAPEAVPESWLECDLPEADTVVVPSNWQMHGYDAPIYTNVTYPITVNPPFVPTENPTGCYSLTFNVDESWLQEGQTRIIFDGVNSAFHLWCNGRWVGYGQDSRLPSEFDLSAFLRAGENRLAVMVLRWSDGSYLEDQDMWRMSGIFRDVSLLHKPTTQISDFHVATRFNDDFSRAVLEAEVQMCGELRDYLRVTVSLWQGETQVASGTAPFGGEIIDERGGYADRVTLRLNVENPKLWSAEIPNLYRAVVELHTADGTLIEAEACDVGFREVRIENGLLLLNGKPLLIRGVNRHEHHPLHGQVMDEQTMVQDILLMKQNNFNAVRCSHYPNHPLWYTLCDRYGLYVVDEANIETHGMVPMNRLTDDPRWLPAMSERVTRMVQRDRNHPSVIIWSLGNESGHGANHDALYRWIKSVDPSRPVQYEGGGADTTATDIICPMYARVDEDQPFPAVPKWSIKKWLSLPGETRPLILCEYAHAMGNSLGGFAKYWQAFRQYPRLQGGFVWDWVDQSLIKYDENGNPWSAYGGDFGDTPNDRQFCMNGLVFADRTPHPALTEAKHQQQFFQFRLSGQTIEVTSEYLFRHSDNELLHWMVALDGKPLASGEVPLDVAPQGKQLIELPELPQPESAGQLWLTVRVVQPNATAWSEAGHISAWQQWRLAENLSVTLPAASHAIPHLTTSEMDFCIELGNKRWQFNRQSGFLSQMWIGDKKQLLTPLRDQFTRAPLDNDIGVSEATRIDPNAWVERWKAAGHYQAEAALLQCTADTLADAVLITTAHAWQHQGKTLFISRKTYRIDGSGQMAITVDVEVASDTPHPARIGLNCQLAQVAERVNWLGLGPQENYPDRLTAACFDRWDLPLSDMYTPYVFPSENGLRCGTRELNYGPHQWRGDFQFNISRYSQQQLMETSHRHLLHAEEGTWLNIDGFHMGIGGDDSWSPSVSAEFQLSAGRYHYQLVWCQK
# [2] = molecular target: T4, Type-1 angiotensin II receptor (Homo sapiens, UniProt P30556); assay: AT1 receptor antagonists, dose response, selectivity assay for APJ receptor antagonist project, cell-based, uHTS hits (AID 463214); type: functional;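 also: antagonist potency against angiotensin II stimulated AT1 response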
# T4 sequence (P30556 whole entry): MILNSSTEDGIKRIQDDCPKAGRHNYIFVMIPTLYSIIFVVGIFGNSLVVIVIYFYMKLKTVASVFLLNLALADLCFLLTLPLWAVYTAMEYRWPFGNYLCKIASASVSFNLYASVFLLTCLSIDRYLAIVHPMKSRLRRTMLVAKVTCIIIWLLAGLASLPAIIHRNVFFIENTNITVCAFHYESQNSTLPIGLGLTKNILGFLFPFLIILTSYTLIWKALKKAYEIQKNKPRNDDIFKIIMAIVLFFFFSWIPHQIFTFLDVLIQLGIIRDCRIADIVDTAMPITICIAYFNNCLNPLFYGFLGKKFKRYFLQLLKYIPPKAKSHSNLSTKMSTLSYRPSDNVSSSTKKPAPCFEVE
# Vero [3] = assay: host cell cytotoxicity of antiviral hits, dose response, cytotoxicity control for West Nile virus antiviral project, secondary assay (AID 1650); type: functional, Chlorocebus sabaeus
# Paired box protein Pax-8 = Paired box protein Pax-8 (Homo sapiens, UniProt Q06710); assay: inhibitors of PAX8-driven TPO luciferase reporter, dose response, RMG-I cells, cherry-pick (AID 687027); type: functional, cell-based;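 also: luciferase reporter driven by Pax8 target thyroperoxidase promoter measured by SteadyGlo luminescence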
# Paired box protein Pax-8, sequence (Q06710 whole entry): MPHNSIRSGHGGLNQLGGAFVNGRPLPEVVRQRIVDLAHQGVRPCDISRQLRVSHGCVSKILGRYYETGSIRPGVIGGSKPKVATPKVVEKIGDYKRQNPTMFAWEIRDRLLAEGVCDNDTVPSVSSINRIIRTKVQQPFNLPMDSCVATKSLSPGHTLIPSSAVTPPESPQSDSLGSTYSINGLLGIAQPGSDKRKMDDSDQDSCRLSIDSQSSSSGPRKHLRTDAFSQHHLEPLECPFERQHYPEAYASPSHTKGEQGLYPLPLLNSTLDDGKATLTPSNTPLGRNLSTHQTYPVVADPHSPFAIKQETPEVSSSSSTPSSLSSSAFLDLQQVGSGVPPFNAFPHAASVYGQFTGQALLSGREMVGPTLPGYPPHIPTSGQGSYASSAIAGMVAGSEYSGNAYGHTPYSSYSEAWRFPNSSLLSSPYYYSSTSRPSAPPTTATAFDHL
# [4] = Luminescence Cell-Based Dose Response HTS to Identify Inhibitors of 5'UTR Stem-Loop Driven Prion Protein mRNA Translation in H4 Neuroglioblastoma Cells. [Related pubchem assays: 1827 (Project Summary), 1813 (Primary HTS)]; type: functional
# [5] = inhibitors of SNCA 5'UTR-driven reporter translation, confirmation, H4 neuroglioma cells, luminescence (AID 1988); type: functional, cell-based
# Vero [6] = assay: cells; type: functional; details: Chlorocebus sabaeus
# Vero [7] = assay: cells; type: functional, cell-based; details: Chlorocebus sabaeus
# [8] = inhibitors of firefly luciferase expression or activity, dose response, H4 neuroglioma cells, luminescence (AID 1990); type: functional, cell-based
# BJ = assay: cytotoxicity toward Ras-transformed BJeLR fibroblasts, dose response, cell-based, alamar blue fluorescence, cherrypicked samples (AID 2631); type: functional; details: Homo sapiens;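 also: confirmatory dose-response assay in RAS-dependent BJ fibroblasts engineered with TERT, LT and ST, with cytotoxicity read by fluorescence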
# Streptococcus = assay: Group A Streptococcus viability loss, dose response, counter-screen for streptokinase expression inhibitor project, luminescence, BacTiterGlo (AID 1915); type: functional, organism-based;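 also: potency for reduction of bacterial viability or growth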
# [9] = test system: Streptococcus sp. 'group A'; assay: growth inhibition of control SK(-) GAS strain, dose response, counter-screen for streptokinase expression inhibitor project, luminescence, kanamycin, BacTiterGlo, confirmation (AID 1900); type: functional, organism-based; details: read-out: EC50
# H9c2 = assay: cells; type: functional, cell-based; details: Rattus norvegicus, H9c2, Myocardium;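 also: confirmatory concentration-response retest of ultra-high-throughput screening hits for modulation of myocardial damage; cell death induced by hydrogen peroxide oxidative stress; compound pretreatment for 60 min then peroxide exposure for 2 h; potency is for protecting the cells against peroxide damage rather than for killing them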
# [10] = NIH-3T3 fibroblast cytotoxicity, dose response, cytotoxicity control, cell-based, fluorescence, Alamar Blue, secondary assay (AID 2327); type: functional;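 also: NIH-3T3 mouse fibroblasts cultured with fluconazole at 8 µg/mL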
# [11] = molecular target: T5, Microphthalmia-associated transcription factor (Homo sapiens, UniProt O75030); assay: TRPM1 promoter luciferase signal decrease, dose response, MITF inhibitor project, cell-based, SK-MEL-5, cherry-picked, set 3 (AID 493073); type: functional
# T5 sequence (O75030 whole entry): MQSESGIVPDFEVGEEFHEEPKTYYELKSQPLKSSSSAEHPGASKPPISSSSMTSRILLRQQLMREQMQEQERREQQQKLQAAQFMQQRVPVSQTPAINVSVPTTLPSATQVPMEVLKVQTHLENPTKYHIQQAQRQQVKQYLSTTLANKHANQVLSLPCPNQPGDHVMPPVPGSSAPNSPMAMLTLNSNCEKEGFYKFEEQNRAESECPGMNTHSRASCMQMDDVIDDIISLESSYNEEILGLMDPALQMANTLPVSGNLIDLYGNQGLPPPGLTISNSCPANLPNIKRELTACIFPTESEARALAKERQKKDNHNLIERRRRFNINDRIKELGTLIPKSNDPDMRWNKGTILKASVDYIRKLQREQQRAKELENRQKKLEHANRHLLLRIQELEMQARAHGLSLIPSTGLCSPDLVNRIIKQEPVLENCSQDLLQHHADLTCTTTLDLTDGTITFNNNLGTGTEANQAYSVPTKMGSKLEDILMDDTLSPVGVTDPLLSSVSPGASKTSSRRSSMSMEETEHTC
# [12] = C. albicans growth with fluconazole, confirmation, fluorescence, retest (AID 2467); type: functional, cell-based
# [13] = growth suppression of PTEN-null colon cells, dose response, cell-based, HCT116 PTEN knockout (AID 1047); type: functional;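 also: HCT116 colon tumor cells with PTEN knocked out; cells exposed to compound for 60 hours before readout; potency for loss of cell viability measured by luminescence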
# [14] = molecular target: Induced myeloid leukemia cell differentiation protein Mcl-1 (Homo sapiens, UniProt Q07820); type: functional
# Induced myeloid leukemia cell differentiation protein Mcl-1, sequence (Q07820 whole entry): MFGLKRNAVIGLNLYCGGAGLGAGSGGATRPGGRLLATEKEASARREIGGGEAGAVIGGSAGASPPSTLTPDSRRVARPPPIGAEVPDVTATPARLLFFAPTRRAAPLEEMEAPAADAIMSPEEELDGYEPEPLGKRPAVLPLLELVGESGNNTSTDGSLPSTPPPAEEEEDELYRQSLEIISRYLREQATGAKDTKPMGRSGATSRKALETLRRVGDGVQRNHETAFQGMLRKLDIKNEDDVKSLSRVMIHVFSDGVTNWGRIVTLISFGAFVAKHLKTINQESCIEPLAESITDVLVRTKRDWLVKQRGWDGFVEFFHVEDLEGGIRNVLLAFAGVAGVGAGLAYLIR
# cells = type: functional
# [15] = growth suppression of beta-catenin-knockout colon cells, dose response, cell-based, HCT116, human colon tumor (AID 1045); type: functional;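 also: HCT116 colon tumor cells with beta catenin knocked out; cells exposed to compound for 60 hours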
# [16] = Vero E6 cell cytotoxicity, dose response, cytotoxicity control for non-replicating M. tuberculosis project, secondary assay (AID 492998); type: functional, VeroE6; details: Vero C1008
# [17] = HepG2 cell cytotoxicity, dose response, cytotoxicity control for non-replicating M. tuberculosis project (AID 489018); type: functional; details: Mycobacterium tuberculosis
# [18] = THP-1 cell cytotoxicity, dose response, cytotoxicity control for non-replicating M. tuberculosis project (AID 489025); type: functional
# Cytochrome P450 3A4, sequence (P08684 whole entry): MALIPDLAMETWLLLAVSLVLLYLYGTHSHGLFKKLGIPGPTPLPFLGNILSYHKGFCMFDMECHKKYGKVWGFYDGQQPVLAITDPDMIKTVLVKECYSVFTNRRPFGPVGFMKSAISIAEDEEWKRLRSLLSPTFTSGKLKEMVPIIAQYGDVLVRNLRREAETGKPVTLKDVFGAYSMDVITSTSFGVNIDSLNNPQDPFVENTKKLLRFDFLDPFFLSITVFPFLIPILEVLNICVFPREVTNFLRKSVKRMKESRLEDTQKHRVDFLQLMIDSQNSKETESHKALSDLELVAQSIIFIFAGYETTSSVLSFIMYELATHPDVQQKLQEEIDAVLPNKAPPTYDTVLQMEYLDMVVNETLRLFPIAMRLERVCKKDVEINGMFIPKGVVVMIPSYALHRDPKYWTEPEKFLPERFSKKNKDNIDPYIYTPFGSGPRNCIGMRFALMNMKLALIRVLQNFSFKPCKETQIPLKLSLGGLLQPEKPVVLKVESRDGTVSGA
smiles,measurement,setting,value
CCOc1ccccc1C(=O)N[C@H](C(=O)OCc1cc([N+](=O)[O-])cc2c1OCOC2)C(C)C,AC50,HEK293,183 µM (active)
Cn1c(=O)c(-c2ccccc2)nc2cnc(Oc3ccccc3)nc21,AC50,Cytochrome P450 3A4,inconclusive
same,AC50,Cytochrome P450 2C9,12.6 µM (inconclusive)
CCN(CC)S(=O)(=O)c1ccc(NC(=O)COC(=O)c2ccc(Br)o2)cc1,AC50,Cytochrome P450 3A4,inconclusive
same,AC50,Cytochrome P450 1A2,0.316 µM (inconclusive)
COC(=O)N1CCC2(CC1)CN(c1ccccc1)C2,AC50,Cytochrome P450 3A4,inconclusive
CCN1CCN(Cc2c(O)ccc3c(=O)c(-c4ccccc4OC)coc23)CC1,AC50,CAAX prenyl protease 2,5.2 µM (active)
same,AC50,Trypsin,16 µM (active)
COc1cc2c(cc1OC)C(CCc1ccccc1)=NCC2,EC50,[1],> 260 µM (inactive)
same,AC50,CAAX prenyl protease 2,6.03 µM (active)
same,AC50,Trypsin,9.41 µM (active)
O=C(CCC(=O)OCC(=O)c1cccc([N+](=O)[O-])c1)Nc1ccccc1Cl,EC50,Beta-galactosidase,> 40 µM (inactive)
same,IC50,[2],15 µM (active)
C[C@H]1O[C@@H](O[C@H]2[C@@H](O)C[C@H](O[C@H]3[C@@H](O)C[C@H](O[C@H]4CC[C@@]5(C)[C@H](CC[C@@H]6[C@@H]5C[C@@H](O)[C@]5(C)[C@@H](C7=CC(=O)OC7)CC[C@]65O)C4)O[C@@H]3C)O[C@@H]2C)C[C@H](O)[C@@H]1O [DIGOXIN],CC50,Vero [3],0.37 µM (active)
same,CC50,"Vero [3]; Chlorocebus sabaeus, Vero",0.3 µM (active)
same,AC50,Paired box protein Pax-8,0.414 µM (active)
same,EC50,[4],< 0.1 µM (active)
same,EC50,[5],< 0.1 µM (active)
same,CC50,Vero [6],0.39 µM (active)
same,IC50,Vero [7],< 0.05 µM (active)
same,EC50,[8],< 0.1 µM (active)
same,EC50,BJ,< 0.104 µM (active)
Cc1cc(C)c2ccc(N)nc2c1O,EC50,Beta-galactosidase,> 40 µM (inactive)
same,EC50,Streptococcus,9.09 µM (active)
same,EC50,[9],3.15 µM (active)
same,IC50,H9c2,> 79 µM (inactive)
same,EC50,[10],> 150 µM (inconclusive)
same,AC50,[11],9.58 µM (active)
same,EC50,[12],> 38 µM (not active)
same,IC50,[2],13.7 µM (active)
Cc1cc2ncn(/N=C/c3ccc([N+](=O)[O-])s3)c2cc1C,CC50,"Vero [3]; Chlorocebus sabaeus, Vero",18.5 µM (active)
same,EC50,[13],3.36 µM (active)
same,IC50,[14],3.27 µM (active)
same,IC50,cells,1.25 µM (active)
same,EC50,[15],3.33 µM (active)
same,CC50,[16],17.1 µM (active)
same,CC50,[17],14 µM (active)
same,CC50,[18],6.75 µM (active)
Cc1ccc(N(Cc2cc(O)nc3ccccc23)C(=O)CCl)c(C)c1,CC50,Vero [6],7.95 µM (active)
same,IC50,Vero [7],> 25 µM (active)
O=C(COc1ccccc1)OCC(=O)c1ccc(S(=O)(=O)N2CCCCC2)cc1,EC50,Beta-galactosidase,> 40 µM (inactive)
same,IC50,[2],16.9 µM (active)
